Earlier results in publication PMC11226190 (Drug Design, Development and Therapy, 2024).

Details: comparable publication

NC(=O)CI [Iodoacetamide]
second order rate constant, DTNB assay: 2.5 M⁻¹ s⁻¹
